Source: US8859549B2, “Potassium channel modulators” (AbbVie, Inc., priority 2011, dated 2014)

Molecular target: T1, KCNQ 2/3 channels (Homo sapiens, UniProt O43525+O43526)
T1 construct: expressed in transfected cells; host or cells: HEK293
Assay: KCNQ 2/3 channel activation, thallium flux FLIPR assay (BTC-AM dye)
Type: cell-based
Conditions: for Emax: HEK293, maximum response relative to the response of 10 μM retigabine (set at 100%), HEK293 KCNQ2/KCNQ3 cells, read-out: % MAX; for EC50: HEK293 cells stably expressing human KCNQ2 and KCNQ3 subunits, thallium-induced fluorescence, 4 min compound incubation
Protocol: The following example describes the assay that can be used to identify compounds that activate KCNQ 2/3 channels.
HEK293 cells stably expressing human KCNQ2 and KCNQ3 subunits were seeded in 96-well, black-walled, clear-bottomed, poly-D-lysine coated plates (BD Biosciences, Bedford, Mass.) at a density of 1×10^5 cells per well 24 hours before the assay. On the assay day, BTC-AM dye (Invitrogen, Carlsbad, Calif.) was loaded into the cells by replacing the cell culture medium with 55 μL/well of 3 μg/mL dye in DPBS. Dye loading was allowed to proceed for 2 hours at room temperature and then cells were washed twice with 50 μL/well of assay buffer (in mM: 10 HEPES pH 7.3, 5 glucose, 140 Na-gluconate, 2.5 K-gluconate, 3.6 Ca-gluconate, 2 MgSO4, 0.1 Ouabain) to remove unloaded dye. Cells were incubated in 50 μL of assay buffer before loading onto a FLIPR system (Molecular Devices, Sunnyvale, Calif.). Various concentrations of compounds to be assayed were added to the cells in 50 μL of assay buffer and incubated for 4 minutes. The fluorescence signal was initiated by adding 100 μL of assay buffer containing 6 mM TlNO3 and 10 mM K2SO4. Fluors were excited using the 488-nm line of an argon laser and emission was filtered using a 540±30 nm bandpass filter. Fluorescent signals were recorded for 3 minutes. Sums of the responses over basal responses were plotted versus concentrations of test compounds to obtain an EC50 value. The maximum response for each test compound was determined relative to the response produced by 10 μM retigabine. The maximum response of retigabine at 10 μM was set at 100%.

| Emax [%] | EC50 [nM] | Compound |
| --- | --- | --- |
| 43.8 | – | O=C(Cc1cccc(O)c1)Nn1nc(N2CCOCC2)c2ccccc2c1=O [Example 143, 2-(3-hydroxyphenyl)-N-[4-(morpholin-4-yl)-1-oxophthalazin-2(1H)-yl]acetamide] |
| 90 | 97.9 | N#Cc1ccc(S(=O)(=O)c2nn(NC(=O)Cc3ccc(Cl)cc3)c(=O)c3ccccc23)cc1 [Example 222, 2-(4-chlorophenyl)-N-{4-[(4-cyanophenyl)sulfonyl]-1-oxophthalazin-2(1H)-yl}acetamide] |
| 146 | 296 | Cc1ccsc1-c1nn(NC(=O)Cc2cc(F)cc(F)c2)c(=O)c2ccccc12 [Example 14, 2-(3,5-difluorophenyl)-N-[4-(3-methylthiophen-2-yl)-1-oxophthalazin-2(1H)-yl]acetamide] |
| 151 | 1130 | Cc1cc(-c2nn(NC(=O)CC3CC4CCC3C4)c(=O)c3ccccc23)ccn1 (racemic) [Example 50, (±)-2-[(exo)-bicyclo[2.2.1]hept-2-yl]-N-[4-(2-methylpyridin-4-yl)-1-oxophthalazin-2(1H)-yl]acetamide] |
| 183 | 4120 | O=C(CC1CC2CCC1C2)Nn1nc(-c2ccnc(C(=O)O)c2)c2ccccc2c1=O (racemic) [Example 75, (±)-4-(3-{[(exo)-bicyclo[2.2.1]hept-2-ylacetyl]amino}-4-oxo-3,4-dihydrophthalazin-1-yl)pyridine-2-carboxylic acid] |
| 33.7 | 1280 | O=C(Cc1ccc(Cl)cc1)Nn1nc(CNC(=O)OCC(F)(F)F)c2ccccc2c1=O [Example 129, 2,2,2-trifluoroethyl[(3-{[(4-chlorophenyl)acetyl]amino}-4-oxo-3,4-dihydrophthalazin-1-yl)methyl]carbamate] |
| 147 | 62.8 | O=C(CC1CC2CCC1C2)Nn1nc(N2CCCC2)c2ccccc2c1=O (racemic) [Example 23, (±)-2-[(exo)-bicyclo[2.2.1]hept-2-yl]-N-[1-oxo-4-(pyrrolidin-1-yl)phthalazin-2(1H)-yl]acetamide] |
| 18.7 | – | COc1ccc(CC(=O)Nn2nc(N3CCOCC3)c3ccccc3c2=O)cc1 [Example 147, 2-(4-methoxyphenyl)-N-[4-(morpholin-4-yl)-1-oxophthalazin-2(1H)-yl]acetamide] |
| 185 | 267 | CC(C)(C)OC(=O)NC(c1ccccc1)c1nn(NC(=O)CC2CC3CCC2C3)c(=O)c2ccccc12 (racemic) [Example 179, tert-butyl(±)-[(3-{[(exo)-bicyclo[2.2.1]hept-2-ylacetyl]amino}-4-oxo-3,4-dihydrophthalazin-1-yl)(phenyl)methyl]carbamate] |
| 69.9 | 306 | Cc1cccc(CC(=O)Nn2nc(S(=O)(=O)c3ccccc3)c3ccccc3c2=O)c1 [Example 207, 2-(3-methylphenyl)-N-[1-oxo-4-(phenylsulfonyl)phthalazin-2(1H)-yl]acetamide] |
| 177 | 206 | CC(C)(C)NC(=O)c1nn(NC(=O)CC2CC3CCC2C3)c(=O)c2ccccc12 (racemic) [Example 99, (±)-3-{[(exo)-bicyclo[2.2.1]hept-2-ylacetyl]amino}-N-tert-butyl-4-oxo-3,4-dihydrophthalazine-1-carboxamide] |
| 3.89 | – | O=C(CC1CCOC1)Nn1nc(N2CCOCC2)c2ccccc2c1=O (centres unmarked) [Example 66, N-[4-(morpholin-4-yl)-1-oxophthalazin-2(1H)-yl]-2-(tetrahydrofuran-3-yl)acetamide] |
| -1.4 | – | Cc1ccccc1CC(=O)Nn1nc(N2CCOCC2)c2ccccc2c1=O [Example 139, 2-(2-methylphenyl)-N-[4-(morpholin-4-yl)-1-oxophthalazin-2(1H)-yl]acetamide] |
| 45 | 916 | O=C(Cc1cc(F)cc(F)c1)Nn1nc(S(=O)(=O)Cc2ccccc2)c2ccccc2c1=O [Example 215, N-[4-(benzylsulfonyl)-1-oxophthalazin-2(1H)-yl]-2-(3,5-difluorophenyl)acetamide] |
| 74.9 | 458 | O=C(Cc1ccc(Cl)cc1)Nn1nc(-c2ccnc(C(F)(F)F)c2)c2ccccc2c1=O [Example 77, 2-(4-chlorophenyl)-N-{1-oxo-4-[2-(trifluoromethyl)pyridin-4-yl]phthalazin-2(1H)-yl}acetamide] |
| 1.73 | – | COc1ccccc1CC(=O)Nn1nc(N2CCOCC2)c2ccccc2c1=O [Example 145, 2-(2-methoxyphenyl)-N-[4-(morpholin-4-yl)-1-oxophthalazin-2(1H)-yl]acetamide] |

| Emax [%] | EC50 [nM] | Compound |
| --- | --- | --- |
| 145 | 447 | O=C(CC1CC2CCC1C2)Nn1nc(C2CCOCC2)c2ccccc2c1=O (racemic) [Example 28, (±)-2-[(exo)-bicyclo[2.2.1]hept-2-yl]-N-[1-oxo-4-(tetrahydro-2H-pyran-4-yl)phthalazin-2(1H)-yl]acetamide] |
| 15.3 | – | O=C(Cc1ccc(Cl)cc1)Nn1nc(CNC(=O)OCc2ccccc2)c2ccccc2c1=O [Example 188, benzyl[(3-{[(4-chlorophenyl)acetyl]amino}-4-oxo-3,4-dihydrophthalazin-1-yl)methyl]carbamate] |
| 3.72 | – | O=C(O)Cc1nn(NC(=O)Cc2ccc(Cl)cc2)c(=O)c2ccccc12 [Example 114, (3-{[(4-chlorophenyl)acetyl]amino}-4-oxo-3,4-dihydrophthalazin-1-yl)acetic acid] |
| 44.6 | 1240 | CC(C)COC(=O)NCc1nn(NC(=O)Cc2ccc(Cl)cc2)c(=O)c2ccccc12 [Example 185, 2-methylpropyl[(3-{[(4-chlorophenyl)acetyl]amino}-4-oxo-3,4-dihydrophthalazin-1-yl)methyl]carbamate] |
| 137 | 67.1 | O=C(CC1CC2CCC1C2)Nn1nc(-c2ccnc(Cl)c2)c2ccccc2c1=O (racemic) [Example 29, (±)-2-[(exo)-bicyclo[2.2.1]hept-2-yl]-N-[4-(2-chloropyridin-4-yl)-1-oxophthalazin-2(1H)-yl]acetamide] |
| 229 | 78.2 | O=C(CC1CC2CCC1C2)Nn1nc(N2CCSCC2)c2ccccc2c1=O (racemic) [Example 93, (±)-2-[(exo)-bicyclo[2.2.1]hept-2-yl]-N-[1-oxo-4-(thiomorpholin-4-yl)phthalazin-2(1H)-yl]acetamide] |
| 183 | 350 | C[C@@H]1CN(c2nn(NC(=O)CC(C)(C)c3ccccc3)c(=O)c3ccccc23)C[C@H](C)O1 [Example 89, N-{4-[(cis)-2,6-dimethylmorpholin-4-yl]-1-oxophthalazin-2(1H)-yl}-3-methyl-3-phenylbutanamide] |
| 124 | 858 | Cc1ccsc1-c1nn(NC(=O)Cc2ccc(Cl)cc2)c(=O)c2ccccc12 [Example 15, 2-(4-chlorophenyl)-N-[4-(3-methylthiophen-2-yl)-1-oxophthalazin-2(1H)-yl]acetamide] |
| 79.2 | 48.9 | O=C(Cc1ccc(Cl)cc1)Nn1nc(S(=O)(=O)c2ccc(Br)cc2)c2ccccc2c1=O [Example 199, N-{4-[(4-bromophenyl)sulfonyl]-1-oxophthalazin-2(1H)-yl}-2-(4-chlorophenyl)acetamide] |
| 25.6 | – | CC(C)(C)OC(=O)NCc1nn(NC(=O)CC2CCCCC2)c(=O)c2ccccc12 [Example 126, tert-butyl({3-[(cyclohexylacetyl)amino]-4-oxo-3,4-dihydrophthalazin-1-yl}methyl)carbamate] |
| 37 | – | CS(=O)(=O)c1ccc(CC(=O)Nn2nc(S(=O)(=O)c3ccccc3)c3ccccc3c2=O)cc1 [Example 189, 2-[4-(methylsulfonyl)phenyl]-N-[1-oxo-4-(phenylsulfonyl)phthalazin-2(1H)-yl]acetamide] |
| 76 | – | CC(C)(C)OC(=O)Nc1ccc(Sc2nn(NC(=O)Cc3ccc(Cl)cc3)c(=O)c3ccccc23)cc1 [Example 103, tert-butyl{4-[(3-{[(4-chlorophenyl)acetyl]amino}-4-oxo-3,4-dihydrophthalazin-1-yl)sulfanyl]phenyl}carbamate] |
| 7.89 | – | O=C(Cc1ccccc1Cl)Nn1nc(N2CCOCC2)c2ccccc2c1=O [Example 151, 2-(2-chlorophenyl)-N-[4-(morpholin-4-yl)-1-oxophthalazin-2(1H)-yl]acetamide] |
| 107 | 998 | C[C@@H]1CN(c2nn(NC(=O)Cc3cc(F)cc(F)c3)c(=O)c3ccccc23)C[C@H](C)O1 [Example 88, 2-(3,5-difluorophenyl)-N-{4-[(cis)-2,6-dimethylmorpholin-4-yl]-1-oxophthalazin-2(1H)-yl}acetamide] |
| 26.2 | – | CCOC(=O)C(NC(=O)Cc1ccc(Cl)cc1)c1nn(NC(=O)Cc2ccc(Cl)cc2)c(=O)c2ccccc12 (centres unmarked) [Example 117, ethyl{[(4-chlorophenyl)acetyl]amino}(3-{[(4-chlorophenyl)acetyl]amino}-4-oxo-3,4-dihydrophthalazin-1-yl)acetate] |
